# Results as given in publication PMC11013252, “Exploration of the Antibacterial and Anti-Inflammatory Activity of a Novel Antimicrobial Peptide Brevinin-1BW” (Molecules, 2024).
# Where two headings read alike, the source gives them in different places. Positions of bridges follow the written chain, without caps; N, C: chain ends. Residues, ends and D or L forms follow the SMILES beside them.
# What was measured:
# S. aureus (ATCC 25923) = type: cell-based, Staphylococcus aureus; details: ATCC 25923, 1 h
# Description: The temperature, serum, and pH stability of antimicrobial peptide Brevinin-1BW was investigated. S. aureus (ATCC 25923) was used to determine its stability. The antimicrobial peptide solution was prepared and placed at −20 °C, 4 °C, 37 °C, 60 °C, and 100 °C for 1 h. The MIC was measured with 96-well plate method to detect the effect of temperature. […] The pH stability was achieved by inoculating S. aureus into MH medium and culturing them with shaking to reach the logarithmic growth phase. This was then diluted to 10^6 CFU/mL. Brevinin-1BW was incubated in PBS at various pH values, pH = 2 or 12, for 1 h at 37 °C. The minimal inhibitory concentrations (MIC) of the peptides were then determined. All the above experiments were repeated more than three times.
# HFF = type: cell-based, human; details: 24 h
# iNOS mRNA = experiment: mRNA expression in LPS-treated RAW264.7 cells, real-time PCR; type: cell-based, mouse
# Description: (§1) RAW 264.7 mouse macrophages were cultured in DMEM medium (Gibco, New York, NY, USA). containing 10% FBS (TransGen Biotech, Beijing, China) and 1% penicillin-streptomycin (Biosharp, Guangzhou, China) and were seeded into 6-well plates at a cell density of 10^5 cells/mL. After cell adhesion, 1 μg/mL LPS (Solarbio, Beijing, China) and different concentrations of Brevinin-1BW (0, 1, 2, 3, and 4 μg/mL) were incubated for 24 h. Culture supernatants were collected, and the contents of TNFα, IL-6, and IL-1β were determined with enzyme-linked immunosorbent assay (BOSTER, Wuhan, China). All cells were washed twice with precooled PBS, total cellular RNA was extracted using the RNAsimple Total RNA Extraction kit (TIANGEN, Beijing, China), and total RNA concentration and purity were determined using a Thermo Fisher NanoDropOne nucleic acid protein spectrophotometer. HiScript II 1st Strand cDNA Synthesis Kit (Vazyme, Nanjing, China) synthesized cDNA, and we performed real-time PCR using Hieff® qPCR SYBR Green Master Mix (No Rox) (YEASEN, Shanghai, China). The primer sequences for Beta-actin (β-Actin), interleukins (IL-6, IL-1β), tumor necrosis factor (TNF-α), and nitric oxide synthase (iNOS) are shown in Table 6. Cells incubated without peptide and/or LPS were used as negative control. All experiments were repeated three times.
# TNF-α mRNA = experiment: as above; type: cell-based, mouse
# Description: as §1
# IL-1β mRNA = experiment: as above; type: cell-based, mouse
# Description: as §1
# IL-6 mRNA = experiment: as above; type: cell-based, mouse
# Description: as §1
# [1] = tested on: S. aureus (ATCC 25923) biofilm formation; type: cell-based, Staphylococcus aureus; details: ATCC 25923, 24 h
# Description: The plates were washed three times with sterile PBS and fixed with methanol for 0.5 h. After drying, the cells were stained with 1% crystal violet solution for 0.5 h. They were washed three times with deionized water and dissolved in 100 µL absolute ethanol. Absorbance was measured at 600 nm. Experiments were repeated four times independently.
# [2] = tested on: S. saprophytics (ATCCBAA750); experiment: microbe, parasite or virus in culture; type: cell-based, Staphylococcus saprophyticus; details: ATCCBAA750, 18 h
# Description: (§2) The minimum inhibitory concentration (MIC) of the Brevinin-1BW was measured in 96-well microtiter plates according to the Clinical and Laboratory Standards Institute (CLSI). The activated strains were treated with Mueller Hinton Agar (MHA) solid medium. Single colonies were picked and expanded to the logarithmic growth phase, and the solution was diluted to 2 × 10^6 CFU/mL using the McFarland turbidity standard. The MIC was determined with the two-fold dilution method. Briefly, 50 μL of Mueller Hinton (MH) medium was added to a 96-well plate in advance. Then, 50 μL of AMP solution was added to the first well, and 50 μL was pipetted into the next well after mixing using a row gun, while 50 μL was discarded from the last well. Final concentrations of Brevinin-1BW were 100, 50, 25, 12.5, 6.25, and 3.125 μg/mL. A 50 μL volume of the diluted bacterial solution was added, and the final concentration of the bacterial solution was 1 × 10^6 CFU/mL. This was then placed into a 37 °C incubator for 18 h until the next day to observe the degree of turbidity of the 96-well plate and measure the absorbance of the wells at 600 nm with a multifunctional microplate reader (SpectraMax iD5, Molecular Devices, Sunnyvale, CA, USA). The absence of turbidity and the measured concentration of absorbance being less than the opposing group was taken as the MIC. The positive control used ampicillin at the same final concentration as Brevinin-1BW, the negative control used 50 μL of MH medium mixed with 50 μL of 2 × 10^6 CFU/mL bacterial solution, and the blank contained only 100 μL of MH medium. Three replicate wells were set up for each experiment, and each experiment was repeated three times. The MIC and all concentrations above the MIC of bacterial solution coated on MHA solid medium were placed into 37 °C incubator incubation for 18 h. The lowest concentration resulting in no colony growth was taken as the minimum bactericidal concentration (MBC).
# [3] = LPS-binding assay, checkerboard with S. aureus; type: cell-based; details: LPS higher than 5 μg/mL, 37 °C, 18 h, OD600
# Description: The lipopolysaccharide-binding assay was performed using the checkerboard method. Dissolve and prepare LPS (Solarbio, Beijing, China) and Brevinin-1BW with Muller Hinton (MH), add LPS with a final concentration of 0–160 μg/mL along the X-axis, and add 100–0 μg/mL Brevinin-1BW along the Y-axis. Then, an additional 10^5 CFU of S. aureus was added to bring the final volume to 200 μL. It was incubated at 37 °C for 18 h, measure the OD 600 value, and the MIC value at different LPS concentrations was recorded. The experiment was repeated three times.
# E. faecalis (ATCC29212) = experiment: microbe, parasite or virus in culture; type: cell-based, Enterococcus faecalis; details: ATCC29212, 18 h
# Description: as §2
smiles,measurement,setting,value
CC[C@H](C)[C@@H]1NC(=O)[C@H](CCCCN)NC(=O)[C@@H](NC(=O)[C@H](Cc2ccccc2)NC(=O)[C@@H](NC(=O)[C@@H](NC(=O)[C@@H]2CCCN2C(=O)[C@H](CC(C)C)NC(=O)[C@H](Cc2ccccc2)NC(=O)[C@H](CO)NC(=O)[C@H](C)NC(=O)[C@H](C)NC(=O)[C@H](CC(C)C)NC(=O)CNC(=O)[C@H](C)NC(=O)[C@H](CC(C)C)NC(=O)[C@H](CC(C)C)NC(=O)[C@@H]2CCCN2C(=O)[C@H](CC(C)C)NC(=O)[C@@H](N)Cc2ccccc2)[C@@H](C)O)[C@@H](C)CC)CSSC[C@@H](C(=O)O)NC(=O)[C@H](CCCCN)NC(=O)[C@H](CCCNC(=N)N)NC(=O)[C@H](CO)NC1=O [Brevinin-1BW] (H-FLPLLAGLAASFLPTIFCKISRKC-OH; disulfide 18-24),MIC after temperature treatment,S. aureus (ATCC 25923),6.25 mg/L
same,MIC after pH treatment,S. aureus (ATCC 25923); pH 2,6.25 µg/mL
same,MIC after pH treatment,S. aureus (ATCC 25923); pH 12,6.25 µg/mL
same,CC50,HFF,33.99 ± 0.48 mg/L
same,decrease of iNOS mRNA expression level,iNOS mRNA,81.37%
same,decrease of TNF-α mRNA expression level,TNF-α mRNA,86.94%
same,decrease of IL-1β mRNA expression level,IL-1β mRNA,95.5%
same,decrease of IL-6 mRNA expression level,IL-6 mRNA,93.72%
same,inhibition of biofilm formation,[1]; 0.5,35.76%
same,inhibition of biofilm formation,[1]; 2,83.67%
same,MBC,[2],12.5 mg/L
same,MIC,[2],6.25 mg/L
same,antibacterial activity against S. aureus in the presence of LPS,[3],gradually decreased
same,MBC,E. faecalis (ATCC29212),12.5 mg/L
same,MIC,E. faecalis (ATCC29212),3.125 mg/L
